Experimental data: EPA's ToxValDB 9.5
Values joined by “and” are separate entries in the source; they are usually repeats but may differ in a detail not shown here. Identical values can stand only once.

How the values were obtained:
Rattus norvegicus = settings: oral
Mus musculus = settings: oral
[1] = chronic, duration: 14 weeks, M, Sprague-Dawley, Hematological: 45% increase in non-segmented neutrophils
[2] = chronic, duration: 104 weeks, F, Sprague-Dawley, Body Weight: 14% reduction in final body weight
[3] = chronic, duration: 104 weeks, M, Sprague-Dawley, Hepatic: Hepatocellular hypertrophy at ?0.1 mg/kg/day / single cell necrosis and cystic degeneration at […]
[4] = developmental, duration: 20 days, Sprague-Dawley, Developmental: Reduced serum T4 in pups at 1 mg/kg/day / approximately 60% survival at weaning versus 80% in controls at 2 mg/kg/day
[5] = developmental, duration: 21 days, F, Sprague-Dawley, Developmental: ~30% increased locomotor activity and concurrent failure to habituate to test environment in male pups on PND 17
[6] = reproduction developmental, duration: 19 days, F, Sprague-Dawley, Body Weight: Decreased mean body weight gain, 10% at 2 mg/kg/day and 33% at 5 mg/kg/day
[7] = reproduction developmental, duration: 67 days, F, Sprague-Dawley, Body Weight: 22% reduction in body weight gain during premating / food consumption reduced […]
[8] = reproduction developmental, duration: 84 days, M/F, Sprague-Dawley, Body Weight: >10% reduction in body weight
[9] = short-term, duration: 28 days, F, Sprague-Dawley, Hematological: Decreased red blood cells (8.9%), hemoglobin (10%), hematocrit (8.8%)
[10] = short-term, duration: 28 days, M/F, Sprague-Dawley, Endocrine: Decreased T4 level (82% in males / 48% in females)
[11] = developmental, duration: 17 days, F, B6C3F1, Developmental: 42.5% reduced NK cell activity in male pups at 8 weeks of age
[12] = reproduction developmental, duration: 17 days, F, CD1, Endocrine: Decreased total T4 on GD 6
[13] = short-term, duration: 21 days, M, CD1, Body Weight: ~15% reduced body weight + Reproductive: ~17% reduced serum testosterone, ~38% reduced epididymal sperm count
[14] = short-term, duration: 28 days, M, B6C3F1, Immunotoxicological: Suppressed response to sRBC (~60%)
[15] = subchronic, duration: 60 days, M, Immunotoxicological: Impaired response to sRBC

`O=S(=O)([O-])C(F)(F)C(F)(F)C(F)(F)C(F)(F)C(F)(F)C(F)(F)C(F)(F)C(F)(F)F.[K+]` [Potassium perfluorooctanesulfonate] showed an LOAEL (Rattus norvegicus; acute, duration: 1 days, F, Sprague-Dawley, Endocrine: Transient decrease in serum TT4 (24, 38, and 53% after 2, 6, and 24 hours, respectively)) of 15 mg/kg-day, an NOAEL (Rattus norvegicus; acute, duration: 1 days, M, Sprague-Dawley) of 10.3 mg/kg-day and an NOAEL (Rattus norvegicus; chronic, duration: 14 weeks, F, Sprague-Dawley, Immunotoxicological: No histological alterations + Neurological: No histological alterations) of 1.56 mg/kg-day. For the same compound, the LOAEL (Rattus norvegicus; [1]) was 1.33 mg/kg-day, the NOAEL (Rattus norvegicus; [1]) was 0.34 mg/kg-day and the NOAEL (Rattus norvegicus; chronic, duration: 14 weeks, M, Sprague-Dawley, Hepatic: Increased absolute and relative liver weight / increased serum ALT / hepatocyte hypertrophy and vacuolation at 1.33/1.55 mg/kg/…) was 1.33 mg/kg-day. The LOAEL (Rattus norvegicus; [2]) was 1.04 mg/kg-day, the NOAEL (Rattus norvegicus; [2]) was 0.25 mg/kg-day and the NOAEL (Rattus norvegicus; chronic, duration: 104 weeks, M/F, Sprague-Dawley, Immunotoxicological: No histological alterations + Neurological: No histological alterations + Reproductive: No histological alterations) was 1.04 mg/kg-day. It also gave an LOAEL (Rattus norvegicus; [3]) of 1.04 mg/kg-day, an NOAEL (Rattus norvegicus; [3]) of 0.25 mg/kg-day and an LOAEL (Rattus norvegicus; chronic, duration: 91 days, M, Sprague-Dawley, Endocrine: 42% decrease in total T4 levels) of 0.27 mg/kg-day. The LOAEL (Rattus norvegicus; developmental, duration: 2 days, F, Sprague-Dawley, Developmental: Decreased neonatal survival (82% of controls on PND 1)) was 25 mg/kg-day, the LOAEL (Rattus norvegicus; developmental, duration: 2 days, F, Sprague-Dawley, Developmental: Increased neonatal mortality) was 25 mg/kg-day and the LOAEL (Rattus norvegicus; developmental, duration: 4 days, Sprague-Dawley, Body Weight: Weight loss during treatment when treated on GDs 2-5 (22%) or 6-9 (17%) + Developmental: Decreased neonatal survival (90% …) was 25 mg/kg-day. The LOAEL (Rattus norvegicus; developmental, duration: 19 days, F, Sprague-Dawley, Developmental: Increased incidences of cleft palate) was 10 mg/kg-day, the LOAEL (Rattus norvegicus; [4]) was 2 mg/kg-day and the NOAEL (Rattus norvegicus; [4]) was 1 mg/kg-day. For the same compound, the NOAEL (Rattus norvegicus; developmental, duration: 21 days, F, Sprague-Dawley) was 1 mg/kg-day, the LOAEL (Rattus norvegicus; developmental, duration: 21 days, F, Sprague-Dawley, Developmental: 2.1-fold increased fetal thyroid cell proliferation on GD 20) was 1 mg/kg-day and the LOAEL (Rattus norvegicus; [5]) was 1 mg/kg-day. It also gave an NOAEL (Rattus norvegicus; [5]) of 0.3 mg/kg-day, an LOAEL (Rattus norvegicus; developmental, duration: 67 days, F, Sprague-Dawley, >10% decrease in mean pup weight per litter on PND 5 at ?0.4 mg/kg/day / ~50% decrease mean pup survival per litter on PND 5 at ?1.6 mg/kg/…) of 1.6 mg/kg-day and an LOAEL (Rattus norvegicus; developmental, duration: 67 days, F, Sprague-Dawley, Developmental: >10% decrease in mean pup weight per litter on PND 5 at ?0.4 mg/kg/day / ~50% decrease mean pup survival per litter on PND 5…) of 0.4 mg/kg-day. The NOAEL (Rattus norvegicus; developmental, duration: 84 days, M/F, Sprague-Dawley, Developmental: Delayed eye opening and transient decrease in F2 pup body weight (13%) on LDs 7-14 at ?0.4 mg/kg/day / decreased pup …) was 0.1 mg/kg-day, the LOAEL (Rattus norvegicus; developmental, duration: 90 days, F, Sprague-Dawley, Increased pup mortality during PNDs 1-4) was 1.6 mg/kg-day and the LOAEL (Rattus norvegicus; developmental, duration: 91 days, F, Sprague-Dawley, Developmental: 19-36% reduced serum T4 levels in pups on PNDs 21-35 after gestationand/or postnatal-only exposure) was 3.2 mg/kg-day. It also gave an NOAEL (Rattus norvegicus; reproduction developmental, duration: 19 days, F, Sprague-Dawley) of 10 mg/kg-day, an LOAEL (Rattus norvegicus; [6]) of 2 mg/kg-day and an NOAEL (Rattus norvegicus; [6]) of 1 mg/kg-day. For the same compound, the LOAEL (Rattus norvegicus; reproduction developmental, duration: 19 days, F, Sprague-Dawley, Endocrine: Reduced total and free T4 and T3) was 1 mg/kg-day, the LOAEL (Rattus norvegicus; [7]) was 2 mg/kg-day and the NOAEL (Rattus norvegicus; [7]) was 1.6 mg/kg-day. The LOAEL (Rattus norvegicus; [8]) was 3.2 mg/kg-day, the NOAEL (Rattus norvegicus; [8]) was 1.6 mg/kg-day and the NOAEL (Rattus norvegicus; reproduction developmental, duration: 84 days, M/F, Sprague-Dawley, Reproductive: No alterations in mating and fertility parameters) was 3.2 mg/kg-day. The NOAEL (Rattus norvegicus; short-term, duration: 4 weeks, F, Sprague-Dawley, Immunotoxicological: No histological alterations + Neurological: No histological alterations) was 1.77 mg/kg-day, the NOAEL (Rattus norvegicus; short-term, duration: 4 weeks, M, Sprague-Dawley, Reproductive: No histological alterations) was 1.51 mg/kg-day and the NOAEL (Rattus norvegicus; short-term, duration: 7 days, M, Sprague-Dawley, Hepatic: Decreased serum cholesterol (38%) and triglyceride (55%) levels at 8.17 mg/kg/day) was 8.17 mg/kg-day. It also gave an NOAEL (Rattus norvegicus; short-term, duration: 7 days, M, Sprague-Dawley, Hepatic: Hepatocellular hypertrophy, increased liver weight, decreased serum cholesterol at ?1.79 mg/kg/day) of 8.96 mg/kg-day, an NOAEL (Rattus norvegicus; short-term, duration: 7 days, M, Wistar, Hepatic: 40% increase in absolute liver weight) of 15 mg/kg-day and an LOAEL (Rattus norvegicus; [9]) of 7.01 mg/kg-day. For the same compound, the NOAEL (Rattus norvegicus; [9]) was 3.47 mg/kg-day, the LOAEL (Rattus norvegicus; [10]) was 1.23 mg/kg-day and the NOAEL (Rattus norvegicus; [10]) was 0.14 mg/kg-day. It also gave an NOAEL (Rattus norvegicus; short-term, duration: 28 days, M, Sprague-Dawley, Hepatic: Hepatocellular hypertrophy and decreased serum cholesterol levels at ?1.54 mg/kg/day) of 7.34 mg/kg-day, an NOAEL (Rattus norvegicus; short-term, duration: 28 days, M, Sprague-Dawley, Hepatic: Increased relative liver weight / hepatocellular hypertrophy in males at 5.89 mg/kg/day) of 5.89 mg/kg-day and an NOAEL (Rattus norvegicus; subchronic, duration: 67 days, F, Sprague-Dawley, Hepatic: 16% reduction in serum total cholesterol on PND 5 at ?0.4 mg/kg/day / increased liver weight in dams at ?0.8 mg/kg/day + …) of 2 mg/kg-day. The LOAEL (Mus musculus; developmental, duration: 4 weeks, M, CD1, Developmental: Impaired retention of the task in the water maze test) was 3 mg/kg-day, the LOAEL (Mus musculus; developmental, duration: 1 days, M, CD1, Developmental: 24% decreased total spontaneous activity at 2 months of age / no significant alteration at 4 months) was 0.75 mg/kg-day and the LOAEL (Mus musculus; developmental, duration: 4 days, F, Developmental: 31% reduced percentage of live pups per litter on PND 15) was 4.5 mg/kg-day. It also gave an LOAEL (Mus musculus; developmental, duration: 5 days, F, ICR, Developmental: 6.1% increased cleft palate and 12.7% reduced body weight in fetuses) of 50 mg/kg-day, an NOAEL (Mus musculus; developmental, duration: 7 days, F, CD1) of 6 mg/kg-day and an LOAEL (Mus musculus; developmental, duration: 7 days, F, CD1, Developmental: Decreased distance traveled in open field test at 3 months of age) of 6 mg/kg-day. The LOAEL (Mus musculus; developmental, duration: 7 days, F, CD1, Developmental: Reduced body weight of pups on PNDs 4 and 8) was 6 mg/kg-day, the LOAEL (Mus musculus; [11]) was 1 mg/kg-day and the NOAEL (Mus musculus; [11]) was 0.1 mg/kg-day. It also gave an NOAEL (Mus musculus; developmental, duration: 17 days, F, CD1, Developmental: Increased incidences of sternal defects at ?5 mg/kg/day / reduced percentage of live fetuses (9%) at 20 mg/kg/day) of 1 mg/kg-day, an NOAEL (Mus musculus; developmental, duration: 17 days, F, CD1, Developmental: Peroxisome proliferation in fetal liver at ?5 mg/kg/day) of 5 mg/kg-day and an LOAEL (Mus musculus; developmental, duration: 17 days, F, ICR, Body Weight: 35% reduced maternal body weight + Developmental: 89% increased cleft palate, 25% reduced body weight in fetuses) of 20 mg/kg-day. The LOAEL (Mus musculus; developmental, duration: 18 days, F, ICR, Developmental: GDs 0-18: decreased survival (55.2%) at 10 mg/kg/day on PND 4, decreased neonatal BW, intracranial blood vessel dilatation, …) was 10 mg/kg-day, the NOAEL (Mus musculus; developmental, duration: 18 days, F, ICR, Hepatic: 60% increased absolute liver weight at ?10 mg/kg/day) was 20 mg/kg-day and the LOAEL (Mus musculus; developmental, duration: 21 days, F, Developmental: Decreased locomotion, muscle strength, and motor coordination in adult offspring) was 0.3 mg/kg-day. The NOAEL (Mus musculus; reproduction developmental, duration: 5 days, F, ICR, […] increased maternal relative liver weight) was 50 mg/kg-day, the NOAEL (Mus musculus; reproduction developmental, duration: 13 days, F, CD1, Endocrine: No alterations in serum T3 or T4 levels + Hepatic: 21% increase in absolute liver weight at ?3 mg/kg/day) was 6 mg/kg-day and the LOAEL (Mus musculus; [12]) was 20 mg/kg-day. The NOAEL (Mus musculus; [12]) was 15 mg/kg-day, the NOAEL (Mus musculus; reproduction developmental, duration: 17 days, F, CD1, Increase in absolute and relative liver weight and decreased serum triglycerides at ?5 mg/kg/day) was 20 mg/kg-day and the NOAEL (Mus musculus; short-term, duration: 14 days, M, CD1, Hepatic: ~70% increased absolute liver weight at ?5 mg/kg/day) was 10 mg/kg-day. It also gave an LOAEL (Mus musculus; [13]) of 10 mg/kg-day, an NOAEL (Mus musculus; [13]) of 5 mg/kg-day and an NOAEL (Mus musculus; short-term, duration: 21 days, M, CD1, Hepatic: Increased absolute liver weight at ?5 mg/kg/day) of 10 mg/kg-day. The LOAEL (Mus musculus; [14]) was 0.00166 mg/kg-day, the NOAEL (Mus musculus; [14]) was 0.000166 mg/kg-day and the LOAEL (Mus musculus; [15]) was 0.0833 mg/kg-day. The NOAEL (Mus musculus; [15]) was 0.0083 mg/kg-day and 0.0167 mg/kg-day.
